# Results: patent US20150337013A1, “NOVEL ANTIBACTERIAL AGENTS FOR THE TREATMENT OF GRAM POSITIVE INFECTIONS” (priority 2008, published 2015)
# Read-outs that look alike come from different tables or passages of the source.
# How the values were obtained:
# [1] = system: Staphylococcus aureus SAU.399 (ATCC 43300), Methicillin and Oxacillin Resistant; format: cell-based; settings: ATCC 43300
# Method: (§1) Compounds according to Formula I were tested for antimicrobial activity against a panel of organisms. Aerobic organisms, Staphylococcus aureus, Enterococcus faecalis and E. faecium, were tested by broth microdilution according to Clinical and Laboratory Standards Institute (CLSI) document M7-A7 (Clinical and Laboratory Standards Institute. Methods for Dilution Antimicrobial Susceptibility Tests for Bacteria that Grow Aerobically; Approved Standard—Seventh Edition. CLSI document M7-A7 [ISBN 1-56238-587-9]. Clinical and Laboratory Standards Institute, 940 West Valley Road, Suite 1400, Wayne, Pa. 19087-1898 USA, 2006) with modifications as described below. Mueller Hinton Broth (MHBc) was supplemented with 50 mg/L calcium (equivalent to human physiological levels of calcium) and assay plates were incubated 18-20 hours at 37° C. with aeration (200 rpm).
# (§2) In all cases the final concentration of dimethyl sulfoxide incubated with cells is less than or equal to 1%. For minimum inhibitory concentration (MIC) calculations, 2-fold dilutions of compounds were added to wells of a microtiter plate containing 5×10^5 bacteria in a final volume of 100 μL of media. Following incubation, (18-20 hours at 37° C. with aeration at 200 rpm) growth was confirmed visually by placing plates over a viewing apparatus (stand with a mirror underneath) and then the optical density (OD600) was measured using a SpectraMax 340PC^384 plate reader. Growth was defined as turbidity that could be detected with the naked eye or achieving minimum OD600of 0.1. MIC values (in μg/mL) were defined as the lowest concentration producing no visible turbidity.
# [2] = system: Staphylococcus aureus SAU.278, Daptomycin resistant mutant (D10); format: cell-based; settings: MHBc with 50 mg/L calcium, 18-20 hours at 37° C.
# Method: as §1, §2
# [3] = system: Staphylococcus aureus SAU.42 (ATCC 29213); format: cell-based
# Method: as §1, §2
# [4] = system: Enterococcus faecium EFM.14 (ATCC 6569); format: cell-based
# Method: as §1, §2
# [5] = system: Enterococcus faecalis EFS.201 (ATCC 49452); format: cell-based
# Method: as §1, §2
# [6] = system: Enterococcus faecium EFM.384, Daptomycin resistant mutant (14-A); format: cell-based; settings: MHBc with 50 mg/L calcium, 18-20 hours at 37° C.
# Method: as §1, §2
# [7] = system: Enterococcus faecalis EFS.312, Daptomycin resistant mutant (EFA); format: cell-based; settings: MHBc with 50 mg/L calcium, 18-20 hours at 37° C.
# Method: as §1, §2
# [8] = MHBc with 50 mg/L calcium, 18-20 hours at 37° C.
SMILES,Sa399 MIC [1] [µg/mL],Sa278 MIC [2] [µg/mL],Sa42 MIC ([3]; ATCC 29213) [µg/mL],Efm14 MIC ([4]; ATCC 6569) [µg/mL],Efs201 MIC ([5]; ATCC 49452) [µg/mL],Efm384 MIC [6] [µg/mL],Efs312 MIC [7] [µg/mL],"Sa42 MIC [3, 8] [µg/mL]","Efm14 MIC [4, 8] [µg/mL]","Efs201 MIC [5, 8] [µg/mL]",C. diff MIC90 (Clostridium difficile) [µg/mL]
CCCCCCCCCCCC(=O)N[C@@H](Cc1c[nH]c2ccccc12)C(=O)N[C@H](CC(N)=O)C(=O)N[C@@H](CC(=O)O)C(=O)N[C@@H]1C(=O)NCC(=O)N[C@@H](CCCN)C(=O)N[C@@H](CC(=O)O)C(=O)N[C@H](C)C(=O)N[C@@H](CC(=O)O)C(=O)NCC(=O)N[C@H](CO)C(=O)N[C@@H]([C@H](C)CC(=O)O)C(=O)N[C@@H](CC(=O)c2ccccc2N)C(=O)O[C@@H]1C [Compound 3],1,1,0.5,1,0.5,4,32,–,–,–,–
CCCCCCCCCOc1ccc(C(=O)N[C@@H](Cc2c[nH]c3ccccc23)C(=O)N[C@H](CC(N)=O)C(=O)N[C@@H](CC(=O)O)C(=O)N[C@@H]2C(=O)NCC(=O)N[C@@H](CCCN)C(=O)N[C@@H](CC(=O)O)C(=O)N[C@H](C)C(=O)N[C@@H](CC(=O)O)C(=O)NCC(=O)N[C@H](CO)C(=O)N[C@@H]([C@H](C)CC(=O)O)C(=O)N[C@@H](CC(=O)c3ccccc3N)C(=O)O[C@@H]2C)cc1 [Compound 37],–,0.25,–,–,–,2,2,0.25,0.5,0.5,1
CCCCCCCCCC(C)(C)C(=O)N[C@@H](Cc1c[nH]c2ccccc12)C(=O)N[C@H](CC(N)=O)C(=O)N[C@@H](CC(=O)O)C(=O)N[C@@H]1C(=O)NCC(=O)N[C@@H](CCCN)C(=O)N[C@@H](CC(=O)O)C(=O)N[C@H](C)C(=O)N[C@@H](CC(=O)O)C(=O)NCC(=O)N[C@H](CO)C(=O)N[C@@H]([C@H](C)CC(=O)O)C(=O)N[C@@H](CC(=O)c2ccccc2N)C(=O)O[C@@H]1C [Compound 12],2,8,4,8,16,>32,32,–,–,–,–
CCCSc1ccc(-c2csc(C(=O)N[C@@H](Cc3c[nH]c4ccccc34)C(=O)N[C@H](CC(N)=O)C(=O)N[C@@H](CC(=O)O)C(=O)N[C@@H]3C(=O)NCC(=O)N[C@@H](CCCN)C(=O)N[C@@H](CC(=O)O)C(=O)N[C@H](C)C(=O)N[C@@H](CC(=O)O)C(=O)NCC(=O)N[C@H](CO)C(=O)N[C@@H]([C@H](C)CC(=O)O)C(=O)N[C@@H](CC(=O)c4ccccc4N)C(=O)O[C@@H]3C)c2)cc1 [Compound 56],2,8,2,8,8,32,>32,–,–,–,–
CC(C)CCCCCCC(=O)N[C@@H](Cc1c[nH]c2ccccc12)C(=O)N[C@H](CC(N)=O)C(=O)N[C@@H](CC(=O)O)C(=O)N[C@@H]1C(=O)NCC(=O)N[C@@H](CCCN)C(=O)N[C@@H](CC(=O)O)C(=O)N[C@H](C)C(=O)N[C@@H](CC(=O)O)C(=O)NCC(=O)N[C@H](CO)C(=O)N[C@@H]([C@H](C)CC(=O)O)C(=O)N[C@@H](CC(=O)c2ccccc2N)C(=O)O[C@@H]1C [Compound 9],0.5,8,0.5,4,4,32,>32,–,–,–,–
CCCCOc1ccc(-c2ccc(C(=O)N[C@@H](Cc3c[nH]c4ccccc34)C(=O)N[C@H](CC(N)=O)C(=O)N[C@@H](CC(=O)O)C(=O)N[C@@H]3C(=O)NCC(=O)N[C@@H](CCCN)C(=O)N[C@@H](CC(=O)O)C(=O)N[C@H](C)C(=O)N[C@@H](CC(=O)O)C(=O)NCC(=O)N[C@H](CO)C(=O)N[C@@H]([C@H](C)CC(=O)O)C(=O)N[C@@H](CC(=O)c4ccccc4N)C(=O)O[C@@H]3C)cc2)cc1 [Compound 60],4,8,1,4,4,16,>32,–,–,–,–
CCCCCc1ccc(C(=O)N[C@@H](Cc2c[nH]c3ccccc23)C(=O)N[C@H](CC(N)=O)C(=O)N[C@@H](CC(=O)O)C(=O)N[C@@H]2C(=O)NCC(=O)N[C@@H](CCCN)C(=O)N[C@@H](CC(=O)O)C(=O)N[C@H](C)C(=O)N[C@@H](CC(=O)O)C(=O)NCC(=O)N[C@H](CO)C(=O)N[C@@H]([C@H](C)CC(=O)O)C(=O)N[C@@H](CC(=O)c3ccccc3N)C(=O)O[C@@H]2C)cc1 [Compound 31],4,>32,4,16,16,>32,>32,–,–,–,–
C[C@H](CC(=O)O)[C@@H]1NC(=O)[C@@H](CO)NC(=O)CNC(=O)[C@H](CC(=O)O)NC(=O)[C@@H](C)NC(=O)[C@H](CC(=O)O)NC(=O)[C@H](CCCN)NC(=O)CNC(=O)[C@@H](NC(=O)[C@H](CC(=O)O)NC(=O)[C@@H](CC(N)=O)NC(=O)[C@H](Cc2c[nH]c3ccccc23)NC(=O)Cc2ccc(-c3ccc(Cl)cc3)cc2)[C@@H](C)OC(=O)[C@H](CC(=O)c2ccccc2N)NC1=O [Compound 65],2,16,2,8,8,>32,>32,–,–,–,–
CCCCCCCCC(=O)N[C@@H](Cc1c[nH]c2ccccc12)C(=O)N[C@H](CC(N)=O)C(=O)N[C@@H](CC(=O)O)C(=O)N[C@@H]1C(=O)NCC(=O)N[C@@H](CCCN)C(=O)N[C@@H](CC(=O)O)C(=O)N[C@H](C)C(=O)N[C@@H](CC(=O)O)C(=O)NCC(=O)N[C@H](CO)C(=O)N[C@@H]([C@H](C)CC(=O)O)C(=O)N[C@@H](CC(=O)c2ccccc2N)C(=O)O[C@@H]1C [Compound 1],2,>32,8,32,32,>32,>32,–,–,–,–
CC(C)C1CCC(CCCC(=O)N[C@@H](Cc2c[nH]c3ccccc23)C(=O)N[C@H](CC(N)=O)C(=O)N[C@@H](CC(=O)O)C(=O)N[C@@H]2C(=O)NCC(=O)N[C@@H](CCCN)C(=O)N[C@@H](CC(=O)O)C(=O)N[C@H](C)C(=O)N[C@@H](CC(=O)O)C(=O)NCC(=O)N[C@H](CO)C(=O)N[C@@H]([C@H](C)CC(=O)O)C(=O)N[C@@H](CC(=O)c3ccccc3N)C(=O)O[C@@H]2C)CC1 (some centres unmarked) [Compound 21],1,2,0.063,–,0.25,–,32,–,–,–,–
CCCCCC1CCC([C@H]2CC[C@H](C(=O)N[C@@H](Cc3c[nH]c4ccccc34)C(=O)N[C@H](CC(N)=O)C(=O)N[C@@H](CC(=O)O)C(=O)N[C@@H]3C(=O)NCC(=O)N[C@@H](CCCN)C(=O)N[C@@H](CC(=O)O)C(=O)N[C@H](C)C(=O)N[C@@H](CC(=O)O)C(=O)NCC(=O)N[C@H](CO)C(=O)N[C@@H]([C@H](C)CC(=O)O)C(=O)N[C@@H](CC(=O)c4ccccc4N)C(=O)O[C@@H]3C)CC2)CC1 (some centres unmarked) [Compound 20],2,8,0.5,–,0.5,–,4,–,–,–,–
C[C@H](CC(=O)O)[C@@H]1NC(=O)[C@@H](CO)NC(=O)CNC(=O)[C@H](CC(=O)O)NC(=O)[C@@H](C)NC(=O)[C@H](CC(=O)O)NC(=O)[C@H](CCCN)NC(=O)CNC(=O)[C@@H](NC(=O)[C@H](CC(=O)O)NC(=O)[C@@H](CC(N)=O)NC(=O)[C@H](Cc2c[nH]c3ccccc23)NC(=O)c2ccc(-c3ccc(Cl)cc3)cc2)[C@@H](C)OC(=O)[C@H](CC(=O)c2ccccc2N)NC1=O [Compound 68],–,32,4,16,16,>32,>32,–,–,–,16
